The values below are quoted from earlier work in patent US20240382500A1, “DOPAMINE RECEPTOR AGONISTS OR ANGIOTENSIN RECEPTOR BLOCKERS OR COMBINATIONS THEREOF FOR COVID-19 SEQUELAE” (priority 2023, published 2024).

Data set [1] has as its system microglia.
The subject of data set [2] is HMGB1.
Data set [3] has as its system ICAM-1.
The conditions of data set [4]: dosages up to 15 mg/day, subjects with early-stage Parkinson's disease.
For data set [5] the following is noted: in vivo.
The test system of data set [6] is natural killer cells (NKCs).
The conditions of data set [7]: 250 mg/day, characterized as a low dose.

As to `CCOc1nc2cccc(C(=O)O)c2n1Cc1ccc(-c2ccccc2-c2nn[nH]n2)cc1` [Candesartan], the microglial phagocytosis entry in data set [1] is on record as “strengthens”. In data set [2], the HMGB1 entry was “lower”. In addition, the “action of ANG II on ICAM-1” value in data set [3] is “inhibit”.
On to `Cc1cc(Oc2ncccc2C(F)(F)F)ccc1-c1c(C)c(=O)[nH]c(=O)n1C` [PF-06649751], for which the motor symptoms entry in data set [4] was “significant improvement”. Besides, in data set [5], the “safety and tolerability in human subjects” value is “safe and well tolerated”.
Take `Oc1cc2c(cc1O)C(c1ccccc1)CNCC2` (centres unmarked) [SKF38393]: the “tolerability in preclinical studies” value was “well tolerated”. The NKC cytotoxicity entry in data set [6] is “augments”. For the same compound, the “clinical benefit in schizophrenia” value in data set [7] is “failed to show a clinical benefit”.
